This note sets out measurements from US20100009920A1, “TTK AS TUMOR MARKER AND THERAPEUTIC TARGET FOR LUNG CANCER” (priority 2006, published 2010).

“Also recorded” adds a separate entry of the source. Read-outs that look alike come from different tables or passages of the source.

What all share (type): cell-based, human
One data set concerns A549 cells. Nature of the data set: Microscopic observation of cell morphology (phase contrast images). Conditions: non-treated cells as control. How it is done:
(§1) The oligo-siRNAs (Dharmacon, Inc., Lafayette, Colo.) ([…]) were transfected into appropriate lung-cancer cell lines using 30 micro-1 of Lipofectamine 2000 (Invitrogen, Carlsbad, Calif.) following the manufacturer's protocol. The ribonucleotide sequences corresponding to following sequences were used as the oligo-siRNA.
The endogenous association between TTK and EGFR in lung cancer cells was also investigated by immunoprecipitaion experiment using extracts from A549 cells, and the interaction between these two proteins regardless the EGF-stimulation was detected (FIG. 4b). To further examine the relevance of TTK to EGFR signaling, TTK or EGFR function in A549 cells were suppressed and cell morphology was microscopically observed.

The test system of the next data set is phospho-EGFR (Tyr-992). Nature of the data set: Phospho-EGFR (Tyr-992) level in A549 cells after RNAi (immunofluorescence, western blot). Conditions: for phosphorylation level of EGFR Tyr-992, western blot: A549 cells; for phospho-EGFR (Tyr-992), immunofluorescence: serum-starved A549 cells. On the procedure:
(§2) Cells were lysed with RIPA buffer [50 mM Tris-HCl (pH 8.0), 150 mM NaCl, 1% NP-40, 0.5% deoxychorate-Na, 0.1% SDS] containing Protease Inhibitor Cocktail Set III (CALBIOCHEM) and phosphatase inhibitor (1 mM sodium fluoride, 1 mM sodium orthovanadate, 2 mM imidazole, 4 mM sodium tartrate). Cytoplasmic and nuclear extractions were isolated by NE-PER Nuclear and Cytoplasmic Extraction Reagents (PIERCE). Protein samples were separated by SDS-polyacrylamide gels and electroblotted onto Hybond-ECL nitrocellulose membranes (GE Healthcare Bio-sciences). Blots were incubated with a mouse monoclonal anti-Mps1 (TTK) antibody (Upstate), rabbit polyclonal anti-phospho-EGFR antibodies (Tyr-845, Tyr-992, Tyr-1045, Tyr-1068, […], and Tyr-1173; Cell Signaling Technology, Inc.), a rabbit polyclonal anti-EGFR antibody (Cell Signaling Technology, Inc.), a rabbit polyclonal anti-phospho-PLCgamma1 (Tyr-771) antibody (Cell Signaling Technology, Inc.), a rabbit polyclonal anti-PLCgamma1 antibody (Cell Signaling Technology, Inc.), a rabbit polyclonal anti-phospho-p44/42 MAPK (Thr202/Tyr204) antibody (Cell Signaling Technology, Inc.), a rabbit polyclonal anti-p44/42 MAPK antibody (Cell Signaling Technology, Inc.), a mouse monoclonal anti-Flag antibody (SIGMA) or a mouse monoclonal anti-beta-actin antibody (SIGMA). Anti-phospho-EGFR (Ser-967) antibodies were raised against Ser-967-phosphorylated synthetic peptides and purified with the phosphopeptide column. Antigen-antibody complexes were detected using secondary antibodies conjugated to horseradish peroxidase (GE Healthcare Bio-sciences). Protein bands were visualized by ECL Western Blotting Detection Reagents (GE Healthcare Bio-sciences).
Cultured cells were fixed with 4% paraformaldehyde solution for 15 min at 37° C., or 10% Trichloro acetic acid for 15 min on ice. Fixed cells were incubated in PBS(−) containing 0.1% Triton X-100 for 10 min and subsequently washed with PBS(−). Prior to the primary antibody reaction, fixed cells were covered with CAS-BLOCK (ZYMED Laboratories Inc.) for 10 min to block non-specific-antibody binding. Then the cells were incubated with a mouse monoclonal anti-Mps1 (TTK) antibody (Upstate) and a rabbit polyclonal anti-phospho-EGFR (Tyr-992) (Cell Signaling Technology, Inc.), or a rabbit polyclonal anti-phospho-p44/42 MAPK (Thr202/Tyr204) antibody (Cell Signaling Technology, Inc.), or a mouse monoclonal anti-Flag antibody (SIGMA). Antibodies were stained with an anti-mouse secondary antibody conjugated to Alexa Fluor 488 (Molecular Probes) and an anti-rabbit secondary antibody conjugated to Alexa Fluor 594 (Molecular Probes). […] Images were viewed and assessed using a confocal microscope at wavelengths of 488, 594 nm (TCS SP2 AOBS: Leica Microsystems). […]
A general note: In western blotting, separated proteins are transferred to a membrane and probed.

Another data set relates to phospho-EGFR (Ser-967). Put plainly: Phospho-EGFR (Ser-967) level in A549 cells after RNAi (immunofluorescence). On the procedure:
(§3) Cells were lysed with RIPA buffer [50 mM Tris-HCl (pH 8.0), 150 mM NaCl, 1% NP-40, 0.5% deoxychorate-Na, 0.1% SDS] containing Protease Inhibitor Cocktail Set III (CALBIOCHEM) and phosphatase inhibitor (1 mM sodium fluoride, 1 mM sodium orthovanadate, 2 mM imidazole, 4 mM sodium tartrate). Cytoplasmic and nuclear extractions were isolated by NE-PER Nuclear and Cytoplasmic Extraction Reagents (PIERCE). Protein samples were separated by SDS-polyacrylamide gels and electroblotted onto Hybond-ECL nitrocellulose membranes (GE Healthcare Bio-sciences). […] Antigen-antibody complexes were detected using secondary antibodies conjugated to horseradish peroxidase (GE Healthcare Bio-sciences). […]
Cultured cells were fixed with 4% paraformaldehyde solution for 15 min at 37° C., or 10% Trichloro acetic acid for 15 min on ice. […] Images were viewed and assessed using a confocal microscope at wavelengths of 488, 594 nm (TCS SP2 AOBS: Leica Microsystems). […]

Another data set concerns PLCγ1 and p44/42 MAPK. Nature of the data set: Western blot of PLCγ and p44/42 MAPK in A549 cells after RNAi. How it is done:
as §2, §1

The subject of another data set is TTK. Nature of the data set: TTK protein level in A549 cells after RNAi (western blot). On the procedure:
as §3

[1] abbreviates: listed as RNAi (oligo) against TTK.

As for “CAAGATGTGTTAAAGTGTTTT (listed as DNA, chemistry not given here) [RNAi-TTK (oligo)]”, the cell morphology result in the data set on A549 cells is on record as “became much larger with multiple nuclei”. In the data set on phospho-EGFR (Tyr-992), the “phosphorylation level of EGFR Tyr-992, western blot” value is “decreased” and the “phospho-EGFR (Tyr-992), immunofluorescence” value is given as “significantly decreased”. Moreover, the “phosphorylation level of EGFR Tyr-992, western blot” value in the data set on phospho-EGFR (Tyr-992) (setting [1]) is given as “reduced”. Further, in the data set on phospho-EGFR (Tyr-992) (listed as si-TTK), the “phospho-EGFR (Tyr-992), immunofluorescence” value is reported as “reduced”. Besides, the “levels of phospho-EGFR Ser-967, immunofluorescence” value in the data set on phospho-EGFR (Ser-967) is reported as “decreased significantly”. The “levels of phospho-EGFR Ser-967, immunofluorescence” value in the data set with phospho-EGFR (Ser-967) (setting [1]) was “reduced”. Besides, in the data set with PLCγ1 and p44/42 MAPK, the “amount of PLCγ protein” value is “did not affect”, the “amount of p44/42 MAPK protein” value is “did not affect”, the “phospho-PLCγ (Tyr-771)” value was “decrease” and the “phosphorylation of p44/42 MAPK (Thr202/Tyr204)” value is on record as “decrease”. In the data set on PLCγ1 and p44/42 MAPK (setting [1]), the “phospho-PLCγ (Tyr-771)” value is “reduced” and the “phosphorylation of p44/42 MAPK (Thr202/Tyr204)” value is listed as “reduced”. In addition, in the data set with TTK, the TTK protein entry is given as “Reduction; also recorded: suppression”.
